Results taken from patent US10093623B2, “Cyclic amides as MetAP-2 inhibitors” (MERCK PATENT GmbH, priority 2012, dated 2018).
pIC50: −log10 of the molar value.

What follows are compounds tested against MetAP-2 (Homo sapiens, UniProt P50579) (assay: MetAP-2 activity measurement (coupled enzymatic reactions, Met-Arg-Ser substrate, dianisidine detection at 450 nm)). Conditions: Inhibition of MetAP-2; read-out: IC50 enzyme.
Format: biochemical
Protocol: MetAP-2 Activity Measurement
The MetAP-2 activity is determined by coupling enzymatic reactions. The tripeptide Met-Arg-Ser (MAS) is employed as substrate. The methionine liberated is firstly converted into Metox and H2O2 by L-aminooxidase (AAO). In the second step, the peroxidase (POD) with the aid of the H2O2 catalyses the oxidation of the leukodye dianisidine to dianisidineox, the increase of which is detected photometrically at 450 nm.
MetAP-2 activity can be recorded continuously as kinetics. The reaction scheme illustrates that one mol of dianisidineox is formed per mol of methionene. The MetAP-2 enzyme activity can therefore be calculated directly as A absorption per time unit. Qualification of the MetAP-2 activity (mol of Met/time unit) is possible with the aid of the dianisidineox extinction coefficient.
The change in extinction per time unit is depicted graphically and a slope calculation is carried out in the visually linear region of the reaction.

Chain of MetAP-2 (P50579 whole entry, species assumed): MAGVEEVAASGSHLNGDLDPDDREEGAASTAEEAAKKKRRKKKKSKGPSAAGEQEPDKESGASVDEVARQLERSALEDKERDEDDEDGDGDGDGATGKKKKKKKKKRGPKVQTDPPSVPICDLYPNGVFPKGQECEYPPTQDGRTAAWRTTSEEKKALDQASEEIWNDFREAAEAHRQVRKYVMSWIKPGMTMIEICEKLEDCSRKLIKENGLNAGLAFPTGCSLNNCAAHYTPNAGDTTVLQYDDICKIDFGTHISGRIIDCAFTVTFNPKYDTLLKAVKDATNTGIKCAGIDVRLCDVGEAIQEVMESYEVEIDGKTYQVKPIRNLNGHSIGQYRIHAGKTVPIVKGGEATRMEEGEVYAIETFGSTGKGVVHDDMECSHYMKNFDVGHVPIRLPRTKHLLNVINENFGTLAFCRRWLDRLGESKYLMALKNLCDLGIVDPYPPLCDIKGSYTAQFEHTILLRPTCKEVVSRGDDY

With `O=C(NCc1cc(F)cc(Cl)c1)[C@@]1(O)CCN(c2ccc(C(F)(F)F)nc2)C1=O` [A99, N-(3-Chloro-5-fluorobenzyl)-(S)-3-hydroxy-2-oxo-1-(6-trifluoromethylpyridin-3-yl)-pyrrolidine-3-carboxamide] as the compound, how does the pIC50 read?
Its pIC50 is 6.00 to 8.00.

`O=C(c1cccc(N2CC[C@@](O)(C(=O)NCc3cc(F)cc(Cl)c3)C2=O)c1)N1CCCC1` [A83, N-(3-Chloro-5-fluorobenzyl)-(R)-3-hydroxy-2-oxo-1-[3-(pyrrolidine-1-carbonyl)phenyl]pyrrolidine-3-carboxamide] was tested. Which pIC50 did it give?
Its pIC50 is less than 5.00.

With `CC(=O)Nc1ccc(N2CC[C@@](O)(C(=O)NCCc3cc(F)cc(Cl)c3)C2=O)cn1` [A156, N-[2-(3-Chloro-5-fluorophenyl)-ethyl]-(R)-1-(6-acetylamino-pyridin-3-yl)-3-hydroxy-2-oxo-pyrrolidine-3-carboxamide] as the compound, how does the pIC50 read?
Its pIC50 is less than 5.00.

How did the pIC50 turn out when `O=C(NCc1cc(F)cc(Cl)c1)C1(O)CCN(CCc2c[nH]c3ccc(F)cc23)C1=O` (centres unmarked) [A219, N-(3-Chloro-5-fluorobenzyl)-1-[2-(5-fluoro-1H-indol-3-yl)ethyl]-3-hydroxy-2-oxopyrrolidine-3-carboxamide] was run?
The pIC50 was 6.00 to 8.00.

`O=C(NCc1ccccn1)[C@]1(O)CCCN(Cc2cccc(F)c2F)C1=O` [A260, N-(Pyridin-2-ylmethyl)-(R)-1-(2,3-difluorobenzyl)-3-hydroxy-2-oxopiperidine-3-carboxamide] was tested. Which pIC50 did it give?
The pIC50 was less than 5.00.

`CNS(=O)(=O)c1ccc(N2CC[C@](O)(C(=O)NCc3cc(F)cc(Cl)c3)C2=O)cc1` [B141, N-(3-Chloro-5-fluorobenzyl)-(S)-3-hydroxy-1-(4-methylsulfamoyl-phenyl)-2-oxopyrrolidine-3-carboxamide] was tested. Which pIC50 did it give?
The pIC50 was 6.00 to 8.00.

How did the pIC50 turn out when `OC1(CNCc2cc(F)cc(Cl)c2)CCN(c2ccccc2)C1` (centres unmarked) [A120, 3-[(3-chloro-5-fluorobenzylamino)methyl]-1-phenylpyrrolidin-3-ol] was run?
The pIC50 was less than 5.00.

`CC(C)(C)OC(=O)N1CCC(n2cc(N3CCC(O)(C(=O)NCc4cc(F)cc(Cl)c4)C3=O)cn2)CC1` (centres unmarked) [A170, tert-Butyl 4-{4-[3-(3-chloro-5-fluorobenzylcarbamoyl)-3-hydroxy-2-oxopyrrolidin-1-yl]-pyrazol-1-yl}-piperidine-1-carboxylate] was tested. Which pIC50 did it give?
The pIC50 was 6.00 to 8.00.

With `CN(CCO)C(=O)c1cccc(N2CC[C@](O)(C(=O)NCc3cc(F)cc(Cl)c3)C2=O)c1` [A93, N-(3-Chloro-5-fluorobenzyl)-(S)-3-hydroxy-1-{3-[(2-hydroxy-ethyl)methylcarbamoyl]phenyl}-2-oxopyrrolidine-3-carboxamide] as the compound, how does the pIC50 read?
Its pIC50 is 5.00 to 6.00.

`COC(=O)CCc1cc(N2CCC(O)(C(=O)NCc3cc(F)cc(Cl)c3)C2=O)ccc1NC(=O)OC(C)(C)C` (centres unmarked) [B105, Methyl 3-{2-tert-butoxy-carbonylamino-5-[3-(3-chloro-5-fluorobenzylcarbamoyl)-3-hydroxy-2-oxopyrrolidin-1-yl]-phenyl}propionate] was tested. Which pIC50 did it give?
Its pIC50 is 6.00 to 8.00.

`Cc1ccc(CN2CCC(O)(C(=O)NCc3cc(F)cc(Cl)c3)C2=O)n1C` (centres unmarked) [A280, N-(3-Chloro-5-fluorobenzyl)-1-(1,5-Dimethyl-1H-pyrrol-2-ylmethyl)-3-hydroxy-2-oxo-pyrrolidine-3-carboxamide] was tested. Which pIC50 did it give?
The pIC50 was 5.00 to 6.00.

How did the pIC50 turn out when `O=C(NCCCO)c1cccc(N2CC[C@@](O)(C(=O)NCc3cc(F)cc(Cl)c3)C2=O)c1` [A103, N-(3-Chloro-5-fluorobenzyl)-(R)-3-hydroxy-1-[3-(3-hydroxy-propylcarbamoyl)phenyl]-2-oxo-pyrrolidine-3-carboxamide] was run?
The pIC50 was 5.00 to 6.00.

`Cc1nnc(CN2CCC(O)(C(=O)NCc3cc(F)cc(Cl)c3)C2=O)o1` (centres unmarked) [A290, N-(3-Chloro-5-fluorobenzyl)-3-hydroxy-1-(5-methyl-1,3,4-oxadiazol-2-ylmethyl)-2-oxo-pyrrolidine-3-carboxamide] was tested. Which pIC50 did it give?
The pIC50 was 5.00 to 6.00.

`O=C(NCc1cc(F)cc(Cl)c1)[C@]1(O)CCN(CCc2c[nH]c3ccccc23)C1=O` [B38, N-(3-Chloro-5-fluorobenzyl)-(R)-3-hydroxy-1-[2-(1H-indol-3-yl)-ethyl]-2-oxopyrrolidine-3-carboxamide] was tested. Which pIC50 did it give?
Its pIC50 is 5.00 to 6.00.

How did the pIC50 turn out when `Cn1nccc1CN1CCC(O)(C(=O)NCc2cc(F)cc(Cl)c2)C1=O` (centres unmarked) [A276, N-(3-Chloro-5-fluorobenzyl)-3-hydroxy-1-(2-methyl-2H-pyrazol-3-ylmethyl)-2-oxopyrrolidine-3-carboxamide] was run?
Its pIC50 is 5.00 to 6.00.

`O=C(NCc1cc(F)cc(Cl)c1)[C@@]1(O)CCN(c2ccc3cc[nH]c3c2)C1=O` [A153, N-(3-Chloro-5-fluorobenzyl)-(S)-3-hydroxy-1-(1H-indol-6-yl)-2-oxopyrrolidine-3-carboxamide] was tested. Which pIC50 did it give?
The pIC50 was 6.00 to 8.00.

How did the pIC50 turn out when `O=C1CCc2cc(N3CC[C@](O)(C(=O)NCc4c(F)cc(Cl)cc4F)C3=O)ccc2N1` [A249, N-(4-Chloro-2,6-difluorobenzyl)-(S)-3-hydroxy-2-oxo-1-(2-oxo-1,2,3,4-tetrahydroquinolin-6-yl)-pyrrolidine-3-carboxamide] was run?
The pIC50 was 6.00 to 8.00.

`CCOC(=O)c1cc2cc(N3CC[C@](O)(C(=O)NCc4cc(F)cc(Cl)c4)C3=O)ccc2[nH]1` [B80, Ethyl 5-[(S)-3-(3-chloro-5-fluorobenzylcarbamoyl)-3-hydroxy-2-oxopyrrolidin-1-yl]-1H-indole-2-carboxylate] was tested. Which pIC50 did it give?
Its pIC50 is 6.00 to 8.00.

How did the pIC50 turn out when `CCS(=O)(=O)N1C[C@@H]2[C@H](C1)[C@H]2N1CCC(O)(C(=O)NCc2cc(F)cc(Cl)c2)C1=O` (stereo partly drawn) [A230, N-(3-Chloro-5-fluorobenzyl)-1-((1S,5R,6S)-3-ethanesulfonyl-3-azabicyclo[3.1.0]hex-6-yl)-3-hydroxy-2-oxopyrrolidine-3-carboxamide] was run?
Its pIC50 is 5.00 to 6.00.

With `Cc1noc(-c2cc3cc(N4CC[C@](O)(C(=O)NCc5cc(F)cc(Cl)c5)C4=O)ccc3[nH]2)n1` [B135, N-(3-Chloro-5-fluorobenzyl)-(S)-3-hydroxy-1-[2-(3-methyl-1,2,4-oxadiazol-5-yl)-1H-indol-5-yl]-2-oxopyrrolidine-3-carboxamide] as the compound, how does the pIC50 read?
The pIC50 was 6.00 to 8.00.

With `O=C(NCc1cc(F)cc(Cl)c1)C1(O)CCN(c2cnc3[nH]c(C(F)(F)F)cc3c2)C1=O` (centres unmarked) [B76, N-(3-Chloro-5-fluorobenzyl)-3-hydroxy-2-oxo-1-(2-trifluoro-methyl-1H-pyrrolo[2,3-b]pyridin-5-yl)pyrrolidine-3-carboxamide] as the compound, how does the pIC50 read?
Its pIC50 is 6.00 to 8.00.

`O=C(NCc1cc(F)cc(Cl)c1)[C@]1(O)CCN(Cc2ccccc2)C1=O` [A141, N-(3-Chloro-5-fluorobenzyl)-(R)-1-benzyl-3-hydroxy-2-oxo-pyrrolidine-3-carboxamide] was tested. Which pIC50 did it give?
Its pIC50 is less than 5.00.

How did the pIC50 turn out when `CN1CCN(C(=O)c2cc3cc(N4CC[C@](O)(C(=O)NCc5cc(F)cc(Cl)c5)C4=O)ccc3[nH]2)CC1` [B122, N-(3-Chloro-5-fluorobenzyl)-(S)-3-hydroxy-1-[2-(4-methyl-piperazin-1-carbonyl)-1H-indol-5-yl]-2-oxopyrrolidine-3-carboxamide] was run?
Its pIC50 is 6.00 to 8.00.

With `N#Cc1c[nH]c2ccc(N3CCC(O)(C(=O)NCc4cc(F)cc(Cl)c4)C3=O)cc12` (centres unmarked) [A87, N-(3-Chloro-5-fluorobenzyl)-1-(3-cyano-1H-indol-5-yl)-3-hydroxy-2-oxopyrrolidine-3-carboxamide] as the compound, how does the pIC50 read?
The pIC50 was 6.00 to 8.00.

`O=C(O)CCN1CCC(O)(C(=O)NCc2cc(F)cc(Cl)c2)C1=O` (centres unmarked) [A271, 3-[3-(3-Chloro-5-fluorobenzylcarbamoyl)-3-hydroxy-2-oxopyrrolidin-1-yl]-propionic acid] was tested. Which pIC50 did it give?
The pIC50 was less than 5.00.

With `O=C(NCc1cc(F)cc(Cl)c1)[C@@]1(O)CCN(c2ccc(C(F)(F)F)cc2F)C1=O` [B65, N-(3-Chloro-5-fluorobenzyl)-(S)-1-(2-fluoro-4-trifluoromethyl-phenyl)-3-hydroxy-2-oxo-pyrrolidine-3-carboxamide] as the compound, how does the pIC50 read?
The pIC50 was 6.00 to 8.00.

`O=C1N(c2ccccc2)CC[C@]1(O)CNCc1cc(F)cc(Cl)c1` [B59, (S)-3-[(3-Chloro-5-fluorobenzylamino)methyl]-3-hydroxy-1-phenylpyrrolidin-2-one] was tested. Which pIC50 did it give?
Its pIC50 is 6.00 to 8.00.

`O=C(NCc1cc(F)cc(Cl)c1)[C@]1(O)CCN(c2cccc(NS(=O)(=O)C3CC3)c2)C1=O` [A85, N-(3-Chloro-5-fluorobenzyl)-(R)-1-(3-cyclopropanesulfonylamino-phenyl)-3-hydroxy-2-oxo-pyrrolidine-3-carboxamidee] was tested. Which pIC50 did it give?
The pIC50 was less than 5.00.

How did the pIC50 turn out when `O=C(NCCc1ccccc1F)C1(O)CCN(c2ccc3[nH]ccc3c2)C1=O` (centres unmarked) [A210, N-[2-(2-Fluorophenyl)ethyl]-3-hydroxy-1-(1H-indol-5-yl)-2-oxo-pyrrolidine-3-carboxamide] was run?
Its pIC50 is 6.00 to 8.00.

How did the pIC50 turn out when `CCS(=O)(=O)Nc1cccc(N2CC[C@](O)(C(=O)NCc3cc(F)cc(Cl)c3)C2=O)c1` [A79, N-(3-Chloro-5-fluorobenzyl)-(S)-1-(3-ethanesulfonylaminophenyl)-3-hydroxy-2-oxopyrrolidine-3-carboxamide] was run?
Its pIC50 is 6.00 to 8.00.

How did the pIC50 turn out when `C=C(Cc1ccccc1)C(=O)[C@]1(O)CCN(c2ccccc2)C1=O` [A111, (R)-3-(2-Benzylacryloyl)-3-hydroxy-1-phenylpyrrolidin-2-one] was run?
The pIC50 was less than 5.00.

With `O=C(NCc1cccc(F)c1)C1(O)CCCN(Cc2ccc(F)c(F)c2)C1=O` (centres unmarked) [A253, N-(3-Fluorobenzyl)-1-(3,4-difluorobenzyl)-3-hydroxy-2-oxo-piperidine-3-carboxamide] as the compound, how does the pIC50 read?
The pIC50 was 5.00 to 6.00.

`N#Cc1cncc(N2CC[C@](O)(C(=O)NCc3cc(F)cc(Cl)c3)C2=O)c1` [A107, N-(3-Chloro-5-fluorobenzyl)-(S)-1-(5-cyanopyridin-3-yl)-3-hydroxy-2-oxopyrrolidine-3-carboxamide] was tested. Which pIC50 did it give?
The pIC50 was 5.00 to 6.00.

`O=C1N(c2ccccc2)CCCC1(O)CNCc1cc(F)cc(Cl)c1` (centres unmarked) [B32, 3-[(3-Chloro-5-fluorobenzylamino)methyl]-3-hydroxy-1-phenylpiperidin-2-one] was tested. Which pIC50 did it give?
The pIC50 was 6.00 to 8.00.

`CC(=O)Nc1ccc(N2CCC(O)(C(=O)NCCc3ccccc3F)C2=O)cn1` (centres unmarked) [A175, N-[2-(2-Fluorophenyl)ethyl]-1-(6-acetylaminopyridin-3-yl)-3-hydroxy-2-oxopyrrolidine-3-carboxamide] was tested. Which pIC50 did it give?
Its pIC50 is 6.00 to 8.00.
